# Assay results from patent publication US20230119479A1, “A HISTONE DEACETYLASE INHIBITOR HAVING A NITROGEN-CONTAINING AROMATIC HETEROCYCLYL GROUP” (SHIONOGI & CO., LTD., priority 2019, published 2023).
# Experiments:
# [1] = target: T1, human ether-a-go-go related gene (hERG) channel (Homo sapiens, UniProt Q12809); test: hERG test (whole cell patch clamp); type: cell-based; conditions: CHO cells expressing hERG; concentration not given
# T1 construct: expressed in transfected cells; host or cells: CHO cells
# T1 sequence (Q12809 whole entry): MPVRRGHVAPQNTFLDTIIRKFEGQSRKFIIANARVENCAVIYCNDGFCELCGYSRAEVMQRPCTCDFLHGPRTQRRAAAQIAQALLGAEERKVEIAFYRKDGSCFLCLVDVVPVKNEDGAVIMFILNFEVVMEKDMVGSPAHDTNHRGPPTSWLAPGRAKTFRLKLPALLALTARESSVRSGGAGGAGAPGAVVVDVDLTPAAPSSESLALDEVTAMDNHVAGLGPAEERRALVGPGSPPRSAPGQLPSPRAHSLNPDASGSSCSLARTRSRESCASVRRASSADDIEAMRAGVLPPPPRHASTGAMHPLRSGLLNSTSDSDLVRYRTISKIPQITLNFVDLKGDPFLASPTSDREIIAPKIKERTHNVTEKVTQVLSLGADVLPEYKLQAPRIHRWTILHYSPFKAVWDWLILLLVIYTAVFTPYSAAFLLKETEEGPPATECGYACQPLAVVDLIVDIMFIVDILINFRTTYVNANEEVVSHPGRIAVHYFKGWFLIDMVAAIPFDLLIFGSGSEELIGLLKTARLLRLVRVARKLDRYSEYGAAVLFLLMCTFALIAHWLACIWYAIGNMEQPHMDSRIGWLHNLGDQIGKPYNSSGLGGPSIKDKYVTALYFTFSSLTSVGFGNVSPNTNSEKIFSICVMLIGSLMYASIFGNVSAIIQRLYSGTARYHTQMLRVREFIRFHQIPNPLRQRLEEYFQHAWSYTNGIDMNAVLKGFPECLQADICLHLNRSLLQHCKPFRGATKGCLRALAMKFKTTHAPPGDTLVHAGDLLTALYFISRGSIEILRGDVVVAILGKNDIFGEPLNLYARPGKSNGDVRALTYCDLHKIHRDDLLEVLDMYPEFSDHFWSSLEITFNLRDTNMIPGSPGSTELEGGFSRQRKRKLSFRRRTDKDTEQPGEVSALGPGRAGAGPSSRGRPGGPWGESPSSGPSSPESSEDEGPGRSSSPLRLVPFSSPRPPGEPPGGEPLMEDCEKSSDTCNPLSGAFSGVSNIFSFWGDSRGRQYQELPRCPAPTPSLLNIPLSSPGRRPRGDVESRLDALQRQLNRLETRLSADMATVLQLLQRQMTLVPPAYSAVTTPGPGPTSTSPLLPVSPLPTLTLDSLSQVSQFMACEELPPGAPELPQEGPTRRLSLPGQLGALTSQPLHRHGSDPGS
# Excerpt: For the purpose of assessing risk of an electrocardiogram QT interval prolongation of the compound of the present invention, effects of the compound of the present invention on delayed rectifier K^+ current (IKr), which plays an important role in the ventricular repolarization process, was studied using CHO cells expressing human ether-a-go-go related gene (hERG) channel.
# After a cell was retained at a membrane potential of −80 mV by whole cell patch clamp method using an automated patch clamp system (QPatch; Sophion Bioscience A/S) and gave a leak potential of −50 mV, IKr induced by depolarization pulse stimulation at +20 mV for 2 seconds, and further, repolarization pulse stimulation at −50 mV for 2 seconds, was recorded. A vehicle, which was the 0.1% dimethyle sulfoxide solution in extracellular solution (NaCl: 145 mmol/L, KCl: 4 mmol/L, CaCl2: 2 mmol/L, MgCl2: 1 mmol/L, glucose:10 mmol/L, HEPES (4-(2-hydroxyethyl)-1-piperazineethanesulfonic acid): 10 mmol/L, pH7.4), or the compound of the present invention had been dissolved at an objective concentration in the extracellular solution was applied to the cell at room temperature for 7 minutes or more. From the recording IKr, an absolute value of the tail peak current was measured based on the current value at the resting membrane potential using analysis software (QPatch assay software; Sophion Bioscience A/S). Further, the % inhibition of tail peak current for the compound of the present invention relative to the tail peak current after application of the vehicle was calculated to assess influence of the compound of the present invention on IKr. The dilution concentration and dilution solvent were changed as necessary.
# [2] = BA test (oral absorption); type: in vivo; conditions: plasma; mice or rats; oral vs intravenous administration
# Experimental: Materials and methods for experiments to evaluate oral absorption (1) Experimental animals: mice or rats were used. (2) Rearing condition: mice or rats were allowed free access to solid feed and sterilized tap water. (3) Setting of dosage and grouping: Oral administration and intravenous administration were performed with the predetermined dosage. Grouping was set as below. (Dosage was changed per compound)
# Oral administration 2 to 60 μmol/kg or 1 to 30 mg/kg (n=2 to 3)
# Intravenous administration 1 to 30 μmol/kg or 0.5 to 10 mg/kg (n=2 to 3)
# (4) Preparation of administration solutions: Oral administration was performed as suspension or solution. Intravenous administration was performed after solubilization. (5) Routes of administration: Oral administration was performed mandatory into the stomach by oral sonde. Intravenous administration was performed from caudal vein by syringes with needle. (6) Evaluation items: Blood was collected serially and concentration of a compound of the present invention in plasma was measured by LC/MS/MS. (7) Statistical analysis: About transition of concentration of a compound of the present invention in plasma, the area under the plasma concentration versus time curve (AUC) was calculated by non-linear least-squares method program, and bioavailability (BA) of a compound of the present invention was calculated from dosages and AUCs of the oral administration group and the intravenous administration group. The dilution concentration or the dilution solvent were changed as necessary.
# [3] = target: T2, HDAC2 Human recombinant C-terminal FLAG-tag (Homo sapiens, UniProt Q92769); test: Measurement of HDAC2 enzyme inhibitory activity (HTRF); type: biochemical; conditions: recombinant HDAC2, H3K9ac peptide, 3 hours room temperature; read-out: HDAC2 IC50
# T2 construct: FLAG (C); purchased BPS Bioscience 50052
# T2 sequence (Q92769 whole entry): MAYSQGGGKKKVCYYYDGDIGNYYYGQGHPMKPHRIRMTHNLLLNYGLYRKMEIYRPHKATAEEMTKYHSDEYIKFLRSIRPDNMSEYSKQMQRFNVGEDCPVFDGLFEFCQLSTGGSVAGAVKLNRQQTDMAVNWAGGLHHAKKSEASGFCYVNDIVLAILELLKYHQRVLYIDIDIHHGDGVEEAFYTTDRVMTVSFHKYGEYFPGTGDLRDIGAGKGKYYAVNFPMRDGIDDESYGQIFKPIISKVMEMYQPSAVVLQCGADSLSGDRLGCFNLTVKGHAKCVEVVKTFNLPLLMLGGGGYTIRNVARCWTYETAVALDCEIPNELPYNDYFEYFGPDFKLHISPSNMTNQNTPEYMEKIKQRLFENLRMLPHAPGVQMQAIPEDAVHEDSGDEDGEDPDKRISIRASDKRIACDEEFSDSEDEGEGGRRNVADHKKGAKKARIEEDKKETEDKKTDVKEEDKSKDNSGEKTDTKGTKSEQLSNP
# Method in brief: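 Compounds were tested at 8 points in 3-fold dilutions from 99 μM final (n=2) against FLAG-tagged HDAC2 with biotinylated H3K9ac (1-21) peptide (0.6 μM as added). The reaction ran 3 h at room temperature in Tris pH 8.0 buffer, then was stopped with SAHA. Deacetylated product was detected by HTRF (Eu-anti-H3K9me0 antibody, streptavidin-XL665) as the 665/615-620 nm ratio.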
# [4] = Platelet toxicity test using human blood progenitor cells (WST); type: cell-based; conditions: human bone marrow CD34+ progenitor cells, maximum concentration 25 μM
# Experimental: Test Example 2: Platelet Toxicity Test Using Human Blood Progenitor Cells
# Human bone marrow CD34+ progenitor cells (Lonza, 2M-101B) stored at −80° C. were thawed, spun down at 150 g for 10 minutes at 20° C., and a medium (StemSpan Expansion Supplement, STEM CELL TECHNOLOGIES, ST-02696) to which cytokines (StemSpan SFEM II, STEM CELL TECHNOLOGIES, ST-09655) was added was added to adjust to 2×10^4/well, the mixture was seeded in 12well non-coat dish (Corning, 3513), was incubated for 10 days at 37° C., 5% CO2. After 10 days, the cells were collected and spun down at 150 g for 10 minutes at 20° C., and a medium (StemSpan Expansion Supplement) containing cytokines (StemSpan SFEM II) was added so that the number of cells became 2×10^5 cells/ml. 50 μl of the cell suspension was seeded to each well of a 96-well plate (Corning, 3596) and allowed to stand overnight in an incubator at 37° C., 5% CO2. The next day, 50 μl of the test compound was treated to each well and allowed to stand for 48 hours in the incubator at 37° C., 5% CO2 (n=2). At this time, the test compound dissolved in 100% DMSO was serially diluted with DMSO at a 3-fold ratio, and then a medium containing cytokine was added to adjust the final concentration to 25, 8.33, 2.78, 0.93, 0.31, 0.1 μM. After that, 10 μl of WST (Cell count reagent SF, Nacalai Tesque Inc., 07553-44) was added to each well, and the mixture was allowed to stand in the incubator for 4 hours at 37° C., 5% CO2, and then the multi-label reader 2030 ARVO X4 (PerkinElmer) was used to measure the absorbance. At this time, the absorbance at 450 nm and the absorbance at 620 nm were obtained, and the difference between 450 nm and 620 nm was used as the measured value. The measured values were analyzed by Excel and TIBCO Spotfire, and IC50 values were calculated. At this time, for control (−), the well without cells was set as n=6 for one row, and the average value was calculated, and for control (+), the well in which DMSO was added to the cells so as to have the same concentration as the compound treatment group was set as n=6 for one row, and the average value was calculated and corrected for each plate. For the test compound, the average value of n=2 was used.
# [5] = system: HDACs other than HDAC2 (HDAC2 knockout K562 cells); test: Evaluation of HDAC2 selectivity: H3K9 histone acetylation in HDAC2 knockout K562 cells (AlphaLISA); type: cell-based; conditions: Homo sapiens, maximum concentration 83.3 μM, 100% = SAHA-treated group, read-out: maximum inhibition rate (H3K9 histone acetylation);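 further: 0% inhibition equals DMSO-treated group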
# Experimental: Test Example 3: Evaluation of HDAC2 Selectivity
# K562 cells were cultured in RPMI1640 medium (SIGMA, R8758) containing 10% FBS (Hyclone, SH30070.03) and 1% penicillin streptomycin (Nacalai Tesque, 26252-94). CompoZr (registered trademark) Zinc Finger Nuclease (Merck) targeting HDAC2 sequences was transfected into K562 cells by electroporation using Nucleofector (Lonza). The cells after transfection were subjected to limiting dilution, and DNA sequencing was performed on the cell clones in which mutations were detected by the PCR method. Cell clones lacking a base number that was not a multiple of 3 in both alleles were identified, and a single-cell cloning was performed on the cell clones to produce HDAC2 knockout K562 cells. It was confirmed that the expression of HDAC2 was not detected by Western blotting in the prepared cells.
# By evaluating the H3K9 histone acetylation-enhancing activity of the test compound using HDAC2 knockout K562 cells, the inhibitory activity against HDACs other than HDAC2 was evaluated.
# HDAC2 knockout K562 cells stored in liquid nitrogen were thawed and cultured in RPMI1640 medium (Nacalai Tesque, 30264-85) for 2 to 4 days. Using Echo555 (Beckman Coulter), the test compound was dispensed to the assay plate (Corning, 4513) at 37.5 nL/well, and then HDAC2 knockout K562 cells were seeded to 125 cells/4.5 μL/well, and stirred. At this time, the test compound was treated at 8 points (n=2) in the 3-fold dilution series from the maximum concentration of 83.3 μM. After culturing at 37° C. and 5% CO2 overnight, 1.5 μL/well of Lysis buffer (PerkinElmer, AL009F1) was added, and after incubating at room temperature for 15 minutes, 3 μL/well of Extraction buffer (PerkinElmer, AL009F2) was added and the mixture was incubated for 10 minutes at room temperature. Then, 5× antibody solution (prepared by diluting anti-H3K9 Acceptor beads (PerkinElmer, AL114M) 75-fold with a detection buffer prepared by diluting 10×Cell-Histone Detection buffer (PerkinElmer, AL009F3) 10-fold with ultrapure water, and diluting Biotinylated anti H3 antibody (PerkinElmer, AL118M) diluted 150 times with the detection buffer) was added at 3 μL/well, and after incubating at room temperature for 60 minutes, then 5× donor beads solution (prepared by diluting Streptavidin Donor beads (PerkinElmer, 6760002) 75 fold with the detection buffer) was added at 3 μL/well, and the mixture was incubated again at room temperature for 60 minutes, and then the emission value was measured using PHERAstar (BMG LABTECH) (excitation=680 nm, […]). […] For cell toxicity, cell viability rate was evaluated by the PrestoBlue method.
# [6] = Metabolism stability test; type: in vitro ADME; conditions: human liver microsomes 0.5 mg protein/mL, 30 minutes, 37° C., NADPH
# Experimental: Using commercially available pooled human hepatic microsomes, a compound of the present invention is reacted for a constant time, and a remaining rate is calculated by comparing a reacted sample and an unreacted sample, thereby, a degree of metabolism in liver is assessed.
# A reaction is performed (oxidative reaction) at 37° C. for 0 minute or 30 minutes in the presence of 1 mmol/L NADPH in 0.2 mL of a buffer (50 mmol/L Tris-HCl pH 7.4, 150 mmol/L potassium chloride, 10 mmol/L magnesium chloride) containing 0.5 mg protein/mL of human liver microsomes. After the reaction, 50 μL of the reaction solution is added to 100 μL of a methanol/acetonitrile=1/1 (v/v), mixed and centrifuged at 3000 rpm for 15 minutes. The compound of the present invention in the supernatant is quantified by LC/MS/MS or Solid Phase Extraction (SPE)/MS, and a remaining amount of the compound of the present invention after the reaction is calculated, letting a compound amount at 0 minute reaction time be 100%. The hydrolysis reaction is carried out in the absence of NADPH, and the glucuronidation reaction is carried out in the presence of 5 mmol/L UDP-glucuronic acid instead of NADPH, and the same operation is carried out thereafter. The dilution concentration and dilution solvent are changed as necessary.
Compound,% inhibition of tail peak current (IKr) [1] [%],bioavailability [2] [%],IC50 [3] [nM],IC50 at 48 h [4] [nM],inhibition at up to 83.3 µM [5] [%],remaining rate after reaction [6] [%]
Cn1cc(-c2ccc(C(=O)Nc3cc(-c4cccs4)ccc3N)nc2)cn1 [Compound I-003],17.1,33.8,310,> 25000,–,–
Cn1cc(-c2cnc(C(=O)Nc3cc(-c4cccs4)ccc3N)cn2)cn1 [Compound I-006],14.3,35.6,54,> 25000,–,–
Nc1ccc(-n2cccc2)nc1NC(=O)c1cnc(N2CCOCC2)cn1 [Compound I-030],–,–,190,–,9,101
Nc1ccc(-c2ccc(F)nc2)cc1NC(=O)c1cnc(OC(F)F)cn1 [Compound I-132],–,–,430,> 25000,6,–
Cn1cc(-c2ccc(N)c(NC(=O)c3cc4ccccc4cn3)c2)cn1 [Compound I-141],–,–,230,> 25000,6,–
Nc1ccc(-c2ccc(F)nc2)cc1NC(=O)c1ccc(OCF)cn1 [Compound I-142],–,–,180,> 25000,8,–
Nc1ccc(-c2ccc(F)nc2)cc1NC(=O)c1ccc(C(F)F)cn1 [Compound I-144],–,–,230,> 25000,7,–
Nc1ccc(-c2ccc(F)nc2)cc1NC(=O)c1ccc2ocnc2n1 [Compound I-148],–,–,150,–,–,94.9
Cn1cc(-c2ccc(N)c(NC(=O)c3cnc(OCC(F)F)cn3)c2)cn1 [Compound I-152],–,–,250,–,–,97.9
Nc1ccc(-n2cccc2)nc1NC(=O)c1cnc(C2CC2)cn1 [Compound I-161],–,–,350,> 25000,9,–
Cc1cnc(C(=O)Nc2nc(-c3ccccc3)ccc2N)cn1 [Compound I-169],–,–,360,–,–,91.4
CN(C)c1ccc(C(=O)Nc2cc(-c3cnn(C)c3)ccc2N)nc1 [Compound I-177],–,–,170,–,–,92
CN(C)c1cnc(C(=O)Nc2cc(-c3cnn(C)c3)ccc2N)cn1 [Compound I-179],–,–,81,–,9,93.5
Cn1cc(-c2cc(C(=O)Nc3cc(-c4ccc(F)nc4)ccc3N)no2)cn1 [Compound I-198],–,–,240,> 25000,5,–
